We go through 11 substances from US7704514B2 (priority 2003, dated 2010).

No end group written: not given here.

Assay [1] deals with HBsAg-specific IFN-γ and IL-4 production. Type of assay: in vivo, C57BL/6 mice. Particulars: C57BL/6, s.c. flank day 0 and 56; co-injected with HBsAg 5 μg/mouse; Alum, pR and KLK: after boost. How it is done: Experimental setup (5 mice/group/timepoint): • 1. HBsAg • 2. HBsAg+Alum • 3. HBsAg+I-ODN 2 • 4. HBsAg+I-ODN 2b • 5. HBsAg+o-d(IC)13 • 6. HBsAg+pR • 7. HBsAg+KLK • 8. HBsAg+pR+I-ODN 2 • 9. HBsAg+pR+I-ODN 2b • 10. HBsAg+pR+o-d(IC)13 • 11. HBsAg+KLK+I-ODN 2 • 12. HBsAg+KLK+I-ODN 2b • 13. HBsAg+KLK+o-d(IC)13
On day 0 and day 56 mice were injected subcutaneously into the right flank with a total volume of 100 μl/mouse containing the above mentioned compounds. The analysis of the immune response was performed at day 7, day 21 and day 50 after first and second injection, respectively. Spleen cells of five mice per group per time point were restimulated ex vivo with 10 μg/ml HBsAg and ELIspot assays were performed in order to analyse the HBsAg-specific IFN-γ (type 1 immune response) as well as IL-4 (type 2 immune response) production.

The test system of assay [2] is Influenza vaccine (Fluvirin)-specific IgG1 and IgG2b antibodies. On the set-up: species or system C57BL/6 mice. Particulars: mouse, in vivo, sc.
Assay [3] deals with HCV-peptide specific IFN-γ production by CD4+ and CD8+ T cells. Type of assay: in vivo, HLA-A*0201 transgenic mice (HHD.1). The conditions noted are these: HHD.1 mice; co-injection of the five HCV-derived peptides (20 μg each) with KLK 10 nmol/o-d(IC)13 0.4 nmol s.c. days 0, 14, 28; day 35. How it is done: Experimental setup (5 mice/group): • 1. HCV peptides • 2. HCV peptides+KLK+o-d(IC)13
On days 0, 14 and 28 HHD.1 mice were injected s.c. into both hind footpads with a total volume of 100 μl/mouse (50 μl/footpad) containing the above listed compounds. At day 35 (7 days after last vaccination) CD4^+ as well as CD8^+ T cells were isolated by magnetic separation (MACS, Miltenyi) from single cell suspensions of spleen cells. T cells were incubated with medium (background control) or were restimulated with irradiated spleen cells from naïve HHD.1 mice as APC in the presence of either the different peptides used for vaccination or the irrelevant peptide p1274. After overnight incubation, the IFN-γ production was analyzed using an ELIspot assay.

For assay [4], the system named is peptide-specific IFN-γ producing cells. Also noted: species or system C57B1/6 mice. The conditions noted are these: mouse, in vivo, sc.
Assay [5] deals with Staphylococcus aureus. Particulars: literature (Nakajima 1997; Cho 1999); cited from earlier work.
The subject of assay [6] is human neutrophils. Particulars: cited from earlier work.

With “Poly-L-Arginine [pR, reference compound]”, the “HBsAg-specific IL-4 production (type 2 immune response) compared to injection of HBsAg alone, spleen cell ELIspot” value in assay [1] is listed as “Slightly increased”. Further, the “Influenza vaccine-specific IgG2b (humoral type 1 response), serum ELISA” value in assay [2] is recorded as “no specific IgG2b response is detectable”.

CINGVCWTV [p89]: in assay [3], the “IFN-γ produced by CD4+ T cells against the peptide (ELIspot)” value (from here on “IFN-γ produced by CD4+ T cells”) was “high amounts” and the “IFN-γ production by CD8+ T cells against the peptide (ELIspot)” value is on record as “strong”.

Turning to IASNENMETM [p1574, reference compound], the “peptide-specific IFN-γ spots of spleen cells after restimulation with the respective peptide (ELIspot)” value (“peptide-specific IFN-γ spots” below) in assay [4] was “do not show any specific spots”.

As to VTILNLALL [p1664], the “peptide-specific IFN-γ spots” value in assay [4] is listed as “specifically release IFN-γ”.

As for TMLYNKMEF [p1569], in assay [4], the “peptide-specific IFN-γ spots” value is “specifically release IFN-γ”.

Turning to GYKVLVLNPSVAAT [p84], the “IFN-γ produced by CD4+ T cells” value in assay [3] is reported as “high amounts”.

With KLKLLLLLKLK-NH2, the “chemotherapeutic activity in Staphylococcus aureus-infected mice” value in assay [5] is “significant chemotherapeutic activity”. Besides, the “production of the superoxide anion (O2−) by human neutrophils via cell surface calreticulin” value in assay [6] is “activated to produce the superoxide anion”.

For the substance KLKLLLLLKLK-OH, the “HBsAg-specific IL-4 production (type 2 immune response) compared to injection of HBsAg alone, spleen cell ELIspot” value in assay [1] was “Slightly increased”. Besides, in assay [2], the “Influenza vaccine-specific IgG1 (type 2 response), serum ELISA” value is listed as “induces the production of Influenza vaccine-specific IgG1” and the “Influenza vaccine-specific IgG2b (humoral type 1 response), serum ELISA” value is on record as “no specific IgG2b response is detectable”.

SSIAAQDAL [p1600]: the “peptide-specific IFN-γ spots” value in assay [4] is “do not show any specific spots”.

Consider DLMGYIPAV [p87], for which, in assay [3], the “IFN-γ produced by CD4+ T cells” value is “high amounts” and the “IFN-γ production by CD8+ T cells against the peptide (ELIspot)” value is reported as “strong”.

Take HMWNFISGIQYLAGLSTLPGNPA [p1426]: in assay [3], the “IFN-γ produced by CD4+ T cells” value is “high amounts”.
